# PMC6179045, “Design, synthesis and biological evaluation of tricyclic pyrazolo[1,5-c][1,3]benzoxazin-5(5H)-one scaffolds as selective BuChE inhibitors” (Journal of Enzyme Inhibition and Medicinal Chemistry, 2018)
# Read-outs that look alike come from different tables or passages of the source.
# Experiments:
# [1] = molecular target: T1, AChE from electric eel (EeAChE) (Electrophorus electricus, UniProt O42275); assay: AChE activity assay (modified Ellman's method); format: biochemical; details: for IC50: mean ± SEM, n = 3
# T1 construct: AChE from electric eel (C3389-500UN; Sigma); purchased Sigma C3389-500UN
# T1 sequence (O42275 24-633): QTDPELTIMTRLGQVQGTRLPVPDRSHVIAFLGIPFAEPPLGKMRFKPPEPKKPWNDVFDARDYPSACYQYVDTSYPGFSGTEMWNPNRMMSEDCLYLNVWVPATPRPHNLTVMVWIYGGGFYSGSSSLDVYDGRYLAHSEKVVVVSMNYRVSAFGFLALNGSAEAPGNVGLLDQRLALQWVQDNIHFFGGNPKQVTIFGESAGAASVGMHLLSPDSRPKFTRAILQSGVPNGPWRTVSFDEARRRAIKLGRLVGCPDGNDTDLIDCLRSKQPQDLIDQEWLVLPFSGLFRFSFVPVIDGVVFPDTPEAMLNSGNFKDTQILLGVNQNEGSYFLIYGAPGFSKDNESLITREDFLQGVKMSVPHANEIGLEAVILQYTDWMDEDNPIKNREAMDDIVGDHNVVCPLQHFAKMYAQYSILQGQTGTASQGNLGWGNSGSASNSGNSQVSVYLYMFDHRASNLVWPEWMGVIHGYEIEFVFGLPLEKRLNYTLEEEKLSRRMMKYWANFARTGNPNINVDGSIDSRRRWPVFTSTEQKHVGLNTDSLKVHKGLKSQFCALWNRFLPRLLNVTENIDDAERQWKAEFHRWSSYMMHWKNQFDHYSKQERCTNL
# Protocol: (§1) Enzymatic activity assays were performed on AChE from electric eel (C3389-500UN; Sigma) and BuChE from equine serum (C4290-1KU; Sigma), according to Ellman’s method with light modification. The experiment was performed in 48-well plates in a final volume of 500 µl. Each well contained 0.036 U/ml of EeAChE or eqBuChE, and 0.1 M pH = 8 phosphate buffer. They were incubated for 20 min at different concentrations of test compound at 37 °C. […] The DTNB produced the yellow anion 5-thio-2-nitrobenzoic acid along with the enzymatic degradation of acetylthiocholine or butyrylthiocholine. The absorbance of each assay was measured at 410 nm after 20 min in a Biotek Synergy HTX Multi-Mode reader. The IC50 values were calculated graphically from inhibition curves (log inhibitor concentration vs percent of inhibition). A control experiment was performed under the same conditions without inhibitor and the blank contained buffer, DMSO, DTNB and substrate.
# [2] = molecular target: T2, BuChE from equine serum (eqBuChE) (Equus caballus, UniProt P81908); assay: BuChE activity assay (modified Ellman's method); format: biochemical, equine (horse); details: for IC50: mean ± SEM, n = 3; for inhibition % at 20 µM BuChE / inhibition at 20 µM: 20 µM compound
# T2 construct: BuChE from equine serum (C4290-1KU; Sigma); purchased Sigma C4290-1KU; host or cells: equine serum
# T2 sequence (P81908 whole entry): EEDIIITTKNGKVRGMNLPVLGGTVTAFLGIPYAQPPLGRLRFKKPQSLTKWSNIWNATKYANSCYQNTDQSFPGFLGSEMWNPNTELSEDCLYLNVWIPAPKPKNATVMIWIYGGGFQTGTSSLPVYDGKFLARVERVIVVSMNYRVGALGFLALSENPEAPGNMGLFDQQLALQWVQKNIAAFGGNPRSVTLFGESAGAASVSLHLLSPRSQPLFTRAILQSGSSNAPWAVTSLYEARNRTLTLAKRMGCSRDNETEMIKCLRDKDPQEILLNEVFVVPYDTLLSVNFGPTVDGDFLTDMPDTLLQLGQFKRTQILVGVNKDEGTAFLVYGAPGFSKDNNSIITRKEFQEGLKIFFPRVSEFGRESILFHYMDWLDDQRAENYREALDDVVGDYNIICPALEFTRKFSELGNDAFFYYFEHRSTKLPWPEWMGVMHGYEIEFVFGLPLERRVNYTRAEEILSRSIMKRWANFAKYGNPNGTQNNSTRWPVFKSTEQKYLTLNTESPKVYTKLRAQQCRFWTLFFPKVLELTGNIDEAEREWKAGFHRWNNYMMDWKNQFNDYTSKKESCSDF
# Protocol: as §1
# [3] = Log P assessment (shake flask method, octanol/PBS); format: physicochemical; details: octanol/PBS pH 7.4, shake flask, 37 °C
# Protocol: Log P, defined as the logarithm of octanol–water partition coefficient, is an important parameter to evaluate lipophilicity of compounds[45]. It can be calculated by determining the concentration of compound in octanol phase and water phase until the partition equilibrium was completed. In this work, log P of title compounds was measured by the shake flask method with slight modification. PBS (pH = 7.4) was used as the water. Both the octanol and the aqueous phase were saturated with each other before use. The assay mixture containing test compounds was shaken at 37 °C. After 24 h, the mixture was centrifuged at 4,000 rpm for 30 min, followed by the measurement with UV spectrophotometer. Experiments were conducted in triplicate and log p values were calculated.
# eqBuChE = molecular target: T3, eqBuChE (Equus caballus, UniProt P81908); assay: Kinetic study of eqBuChE inhibition (Lineweaver-Burk plots); format: biochemical, equine (horse); details: for type of BuChE inhibition: Lineweaver-Burk plots; for Ki: Lineweaver-Burk secondary plots, inhibitor 5, 10 and 20 µM, read-out: dissociation constant Ki against BuChE
# T3 construct: BuChE from equine serum (C4290-1KU; Sigma); purchased Sigma C4290-1KU; host or cells: equine serum
# T3 sequence (P81908 whole entry): as above
# Protocol: . The kinetic type of enzyme inhibition was obtained through the modified Ellman’s method and Lineweaver–Burk secondary plots. Apparent inhibition constants and kinetic parameters were calculated within the “Enzyme kinetics” module of Prism 5.
# The kinetic studies were carried out at three fixed inhibitor concentrations (5, 10 and 20 µM).
# [4] = Cytotoxicity MTT assay in PC12 cells; format: cell-based; details: rat, 1-50 µM, read-out: relative cell viability (cytotoxicity)
# Protocol: PC12 cells were used to evaluate cell cytotoxicity by methyl thiazolyl tetrazolium (MTT) assay. PC12 cells were cultured in DMEM containing 10% fetal bovine serum, 100 µg/ml streptomycin and 100 units/ml penicillin at 37 °C in a 5% CO2 humidified atmosphere, and inoculated at 1 × 10^4 cells per well in 96-well plate. After cultured for 24 h, the cells were treated with different concentration of compounds in DMEM for 24 h. Then 20 µl of 0.5 mg/ml MTT reagent was added into the cells and incubated for 4 h. After 4 h, cell culture was removed and then 150 µl DMSO was added to dissolve the formazan. The optical density was measured at 570 nm (OD570). Cell viability was calculated from three independent experiments. OD570 of formazan in blank group was set as 100% of viability.
# Blank: cultured with fresh medium only.
# [5] = tested on: differentiated PC12 cells; assay: Neuroprotective effect against H2O2-induced damage in differentiated PC12 cells; format: cell-based; details: Rattus norvegicus, PC-12, 25 µM compound 3 h before H2O2 (300 µM), 24 h, MTT, p < .05 vs. H2O2 alone, read-out: cell viability (neuroprotective activity)
# Protocol: The differentiated PC12 cells and oxidative agent H2O2 were used as in vitro model to assess neuronal differentiation and neurobiochemical and neurobiological properties[39]^,[44]. Differentiated PC12 cells were incubated with different concentrations of compounds 6a and 6g for 3 h before treatment with H2O2 (300 µM). Cell viability was measured after 24 h using MTT method. Briefly, 20 µL of 0.5 mg/ml MTT reagent was added into the cells and incubated for 4 h. After 4 h, cell culture was removed and then 150 µl DMSO was added to dissolve the formazan. OD570 value was measured at 570 nm on the Biotek Synergy HTX Multi-Mode reader. Results were adjusted by OD570 value in the blank.
# . The differentiated PC12 cells were pretreated with three concentrations (10, 25 and 50 µM) for 3 h, before treatment with H2O2 (300 µM), and cell viability was measured after 24 h using MTT method. […]. Neuroprotective activity of compounds 6a and 6g […] was evaluated by subjecting PC12 cells to H2O2-induced damage. […]
# [6] = AChE from electric eel, 20 µM compound
# [7] = AChE from electric eel, 20 µM compound, read-out: inhibition at 20 µM AChE
# [8] = AChE from electric eel, 20 µM compound, read-out: inhibition % at 20 µM AChE
# [9] = BuChE from horse serum, read-out: inhibition % at 20 µM BuChE
# [10] = BuChE from horse serum, read-out: inhibition at 20 µM BuChE
smiles,measurement,setting,value
"CC1=NN2C(=O)Oc3c(Br)cc(Cl)cc3C2C1 (centres unmarked) [Compound 6i, 7-Bromo-9-chloro-2-methyl-1,10b-dihydro-5H-pyrazolo[1,5-c][1,3]benzoxazin-5-one]",IC50,[1]; AChE from electric eel,13 ± 0.32 µM
same,IC50,[2]; BuChE from horse serum,2.44 ± 0.44 µM
"Cc1ccc(C2=NN3C(=O)Oc4ccccc4C3C2)cc1 (centres unmarked) [Compound 3f, 2–(4-Methyl)phenyl-1,10b-dihydro-5H-pyrazolo[1,5-c][1,3]benzoxazin-5-one]",inhibition % at 20 µM AChE,[1]; [6],48 ± 3%
same,inhibition % at 20 µM BuChE,[2]; BuChE from horse serum,32 ± 2%
"O=C1Oc2ccc(Cl)cc2C2CC(c3ccc(Cl)cc3)=NN12 (centres unmarked) [Compound 3d, 9-Chloro-2-(4-chloro)phenyl-1,10b-dihydro-5H-pyrazolo[1,5-c][1,3]benzoxazin-5-one]",inhibition % at 20 µM AChE,[1]; [6],39 ± 1%
same,inhibition % at 20 µM BuChE,[2]; BuChE from horse serum,41 ± 6%
"O=C1Oc2ccccc2C2CC(c3ccccc3)=NN12 (centres unmarked) [Compound 3a, 2-Phenyl-1,10b-dihydro-5H-pyrazolo[1,5-c][1,3]benzoxazin-5-one]",inhibition at 20 µM,[1]; [7],< 0%
same,IC50,[2]; BuChE from horse serum,9.47 ± 0.23 µM
"CC1=NN2C(=O)Oc3c(Br)cccc3C2C1 (centres unmarked) [Compound 6q, 7-Bromo-2-methyl-1,10b-dihydro-5H-pyrazolo[1,5-c][1,3]benzoxazin-5-one]",inhibition at 20 µM,[1]; [7],< 0%
same,IC50,[2]; BuChE from horse serum,3.22 ± 1.06 µM
"CC1=NN2C(=O)Oc3ccccc3C2C1 (centres unmarked) [Compound 6o, 2-Methyl-1,10b-dihydro-5H-pyrazolo[1,5-c][1,3]benzoxazin-5-one]",inhibition at 20 µM,[1]; read-out: inhibition at 20 µM AChE,< 0%
same,inhibition at 20 µM,"[2]; read-out: inhibition % at 20 µM BuChE, BuChE from horse serum",50.1 ± 4.3%
"COc1cccc2c1OC(=O)N1N=C(C)CC21 (centres unmarked) [Compound 6k, 2-Methyl-7-methoxy-1,10b-dihydro-5H-pyrazolo[1,5-c][1,3]benzoxazin-5-one]",inhibition at 20 µM,[1]; [8],35 ± 3%
same,inhibition % at 20 µM BuChE,[2]; BuChE from horse serum,14 ± 3%
same,inhibition at 20 µM,[2]; [9],< 20%
"S=C1Oc2ccccc2C2CC(c3ccccc3)=NN12 (centres unmarked) [Compound 3b, 2-Phenyl-1,10b-dihydro-5H-pyrazolo[1,5-c][1,3]benzoxazin-5-thione]",inhibition at 20 µM,[1]; [7],< 0%
same,inhibition at 20 µM,[2]; [9],9 ± 3%
"CC1=NN2C(=O)Oc3ccc(Cl)cc3C2C1 (centres unmarked) [Compound 6e, 9-Chloro-2-methyl-1,10b-dihydro-5H-pyrazolo[1,5-c][1,3]benzoxazin-5-one]",inhibition at 20 µM,[1]; [8],16 ± 1%
same,IC50,[2]; BuChE from horse serum,6.29 ± 0.65 µM
"COc1cccc2c1OC(=S)N1N=C(C)CC21 (centres unmarked) [Compound 6l, 2-Methyl-7-methoxy-1,10b-dihydro-5H-pyrazolo[1,5-c][1,3]benzoxazin-5-thione]",inhibition at 20 µM,[1]; [8],30 ± 2%
same,inhibition at 20 µM,[2]; [9],2 ± 2%
"CC1=NN2C(=S)Oc3ccccc3C2C1 (centres unmarked) [Compound 6p, 2-Methyl-1,10b-dihydro-5H-pyrazolo[1,5-c][1,3]benzoxazin-5-thione]",inhibition at 20 µM,[1]; [7],< 0%
same,inhibition at 20 µM,[2]; [10],< 0%
"CC1=NN2C(=S)Oc3c(Cl)cc(Cl)cc3C2C1 (centres unmarked) [Compound 6b, 7,9-Dichloro-2-methyl-1,10b-dihydro-5H-pyrazolo[1,5-c][1,3]benzoxazin-5-thione]",inhibition at 20 µM,[1]; [8],25 ± 1%
same,inhibition at 20 µM,[2]; [10],< 0%
"CC1=NN2C(=O)Oc3c(Br)cc(Br)cc3C2C1 (centres unmarked) [Compound 6c, 7,9-Dibromo-2-methyl-1,10b-dihydro-5H-pyrazolo[1,5-c][1,3]benzoxazin-5-one]",IC50,[1]; AChE from electric eel,10.7 ± 0.64 µM
same,IC50,[2]; BuChE from horse serum,1.63 ± 0.42 µM
same,logP at 24 h,[3],1.48
"CC1=NN2C(=O)Oc3c(Cl)cc(Cl)cc3C2C1 (centres unmarked) [Compound 6a, 7,9-Dichloro-2-methyl-1,10b-dihydro-5H-pyrazolo[1,5-c][1,3]benzoxazin-5-one]",inhibition at 20 µM,[1]; [8],39 ± 3%
same,IC50,[2]; BuChE from horse serum,1.06 ± 0.11 µM
same,logP at 24 h,[3],1.5
same,type of BuChE inhibition,eqBuChE,mixed-type inhibition
same,Ki,eqBuChE,7.46 µM
same,viability at 24 h,[4],> 90%
same,viability at 25 µM,[5],> 70%
"CC1=NN2C(=O)Oc3ccc(Br)cc3C2C1 (centres unmarked) [Compound 6g, 9-Bromo-2-methyl-1,10b-dihydro-5H-pyrazolo[1,5-c][1,3]benzoxazin-5-one]",inhibition at 20 µM,[1]; [8],26 ± 1%
same,IC50,[2]; BuChE from horse serum,1.63 ± 0.34 µM
same,logP at 24 h,[3],1.63
same,type of BuChE inhibition,eqBuChE,mixed-type inhibition
same,Ki,eqBuChE,3.09 µM
same,viability at 24 h,[4],> 90%
same,viability at 25 µM,[5],> 70%
"CC1=NN2C(=S)Oc3ccc(Br)cc3C2C1 (centres unmarked) [Compound 6h, 9-Bromo-2-methyl-1,10b-dihydro-5H-pyrazolo[1,5-c][1,3]benzoxazin-5-thione]",inhibition at 20 µM,[1]; [8],27 ± 2%
same,inhibition at 20 µM,[2]; [10],< 0%
"O=C1Oc2ccccc2C2CC(c3ccc(F)cc3)=NN12 (centres unmarked) [Compound 3c, 2-(4-Fluoro)phenyl-1,10b-dihydro-5H-pyrazolo[1,5-c][1,3]benzoxazin-5-one]",inhibition % at 20 µM AChE,[1]; [6],15 ± 3%
same,inhibition % at 20 µM BuChE,[2]; BuChE from horse serum,15 ± 2%
"CC1=NN2C(=S)Oc3c(Br)cc(Cl)cc3C2C1 (centres unmarked) [Compound 6j, 7-Bromo-9-chloro-2-methyl-1,10b-dihydro-5H-pyrazolo[1,5-c][1,3]benzoxazin-5-thione]",inhibition at 20 µM,[1]; [8],14 ± 2%
same,inhibition at 20 µM,[2]; [10],< 0%
"CC1=NN2C(=S)Oc3ccc(C)cc3C2C1 (centres unmarked) [Compound 6n, 2,9-Dimethyl-1,10b-dihydro-5H-pyrazolo[1,5-c][1,3]benzoxazin-5-thione]",inhibition at 20 µM,[1]; [8],15 ± 2%
same,inhibition at 20 µM,[2]; [10],< 0%
"CC1=NN2C(=S)Oc3ccc(Cl)cc3C2C1 (centres unmarked) [Compound 6f, 9-Chloro-2-methyl-1,10b-dihydro-5H-pyrazolo[1,5-c][1,3]benzoxazin-5-thione]",inhibition at 20 µM,[1]; [8],18 ± 2%
same,inhibition at 20 µM,[2]; [10],< 0%
"CC1=NN2C(=O)Oc3ccc(C)cc3C2C1 (centres unmarked) [Compound 6m, 2,9-Dimethyl-1,10b-dihydro-5H-pyrazolo[1,5-c][1,3]benzoxazin-5-one]",inhibition at 20 µM,[1]; [7],< 0%
same,inhibition % at 20 µM BuChE,[2]; BuChE from horse serum,14 ± 1%
same,inhibition at 20 µM,[2]; [9],< 20%
"CC1=NN2C(=S)Oc3c(Br)cc(Br)cc3C2C1 (centres unmarked) [Compound 6d, 7,9-Dibromo-2-methyl-1,10b-dihydro-5H-pyrazolo[1,5-c][1,3]benzoxazin-5-thione]",inhibition at 20 µM,[1]; [8],26 ± 3%
same,inhibition at 20 µM,[2]; [10],< 0%
"Cc1ccc(C2=NN3C(=O)Oc4ccc(Cl)cc4C3C2)cc1 (centres unmarked) [Compound 3e, 9-Chloro-2-(4-methyl)phenyl-1,10b-dihydro-5H-pyrazolo[1,5-c][1,3]benzoxazin-5-one]",inhibition % at 20 µM AChE,[1]; [6],32 ± 2%
same,inhibition % at 20 µM BuChE,[2]; BuChE from horse serum,32 ± 5%
